ChEMBL document CHEMBL3885881, “DrugMatrix”

Species on record: Rattus norvegicus
Assay: DrugMatrix - Regimen: Daily Repeat
Format: toxicity, organism-based, Sprague-Dawley
Design: regimen Daily Repeat, gender Male, age 6-8 weeks
Conditions: in vivo, po, route oral GAVAGE, vehicle 100 % WATER; for ABSOLUTE BASOPHIL / ABSOLUTE EOSINOPHIL / ABSOLUTE LYMPHOCYTE / ABSOLUTE MONOCYTE / ABSOLUTE SEGMENTED NEUTROPHIL / BASOPHIL / EOSINOPHIL / ERYTHROCYTE COUNT / HEMATOCRIT / HEMOGLOBIN / LEUKOCYTE COUNT / LYMPHOCYTE / MEAN CORPUSCULAR HEMOGLOBIN / MEAN CORPUSCULAR HEMOGLOBIN CONCENTRATION / MEAN CORPUSCULAR VOLUME / MONOCYTE / NEUTROPHIL / NUCLEATED RED BLOOD CELLS / PLATELET COUNT: tissue Blood; for ALANINE AMINOTRANSFERASE / ALBUMIN / ALKALINE PHOSPHATASE / ASPARTATE AMINOTRANSFERASE / BLOOD UREA NITROGEN / CARBON DIOXIDE / CHLORIDE / CHOLESTEROL / CREATINE PHOSPHOKINASE / CREATININE / GLUCOSE / LACTATE DEHYDROGENASE / LIPASE / PHOSPHORUS / POTASSIUM / SODIUM / TOTAL BILIRUBIN / TOTAL PROTEIN / URIC ACID: tissue Plasma
[1] = 0 mg/kg, 72 h, dose level Control, time 3 day
[2] = 0 mg/kg, 120 h, dose level Control, time 5 day
[3] = 500 mg/kg, 72 h, dose level Low, time 3 day

SMILES: NCCCCCC(=O)O [AMINOCAPROIC ACID]
- ABSOLUTE BASOPHIL [1]: 0 CELLS/uL
- ABSOLUTE EOSINOPHIL [1]: 40 CELLS/uL
- ABSOLUTE LYMPHOCYTE [1]: 13599.5 CELLS/uL
- ABSOLUTE MONOCYTE [1]: 239.33 CELLS/uL
- ABSOLUTE SEGMENTED NEUTROPHIL [1]: 1021.17 CELLS/uL
- BASOPHIL [1]: 0%
- EOSINOPHIL [1]: 0.33%
- ERYTHROCYTE COUNT [1]: 5.71 x10E6/uL
- HEMATOCRIT [1]: 36.35%
- HEMOGLOBIN [1]: 14.05 G/DL
- LEUKOCYTE COUNT [1]: 14.9 x10E3/uL
- LYMPHOCYTE [1]: 91%
- MEAN CORPUSCULAR HEMOGLOBIN [1]: 24.62 pg
- MEAN CORPUSCULAR HEMOGLOBIN CONCENTRATION [1]: 38.65 G/DL
- MEAN CORPUSCULAR VOLUME [1]: 63.7 fL
- MONOCYTE [1]: 1.5%
- NEUTROPHIL [1]: 7.17%
- NUCLEATED RED BLOOD CELLS [1]: 0.33 /100WBC
- PLATELET COUNT [1]: 1225.5 x10E3/uL
- ALANINE AMINOTRANSFERASE [1]: 48.5 u/L
- ALBUMIN [1]: 4.18 G/DL
- ALKALINE PHOSPHATASE [1]: 390.83 u/L
- ASPARTATE AMINOTRANSFERASE [1]: 89 u/L
- BLOOD UREA NITROGEN [1]: 14.83 mg/dL
- CARBON DIOXIDE [1]: 24.83 mmol/L
- CHLORIDE [1]: 100.83 MEQ/L
- CHOLESTEROL [1]: 72.5 mg/dL
- CREATINE PHOSPHOKINASE [1]: 503 u/L
- CREATININE [1]: 0.2 mg/dL
- GLUCOSE [1]: 163 mg/dL
- LACTATE DEHYDROGENASE [1]: 316.83 u/L
- LIPASE [1]: 9.83 u/L
- PHOSPHORUS [1]: 11.57 mg/dL
- POTASSIUM [1]: 6.16 MEQ/L
- SODIUM [1]: 142.62 MEQ/L
- TOTAL BILIRUBIN [1]: 0.2 mg/dL
- TOTAL PROTEIN [1]: 5.8 G/DL
- URIC ACID [1]: 1.65 mg/dL
- ABSOLUTE BASOPHIL [2]: 0 CELLS/uL
- ABSOLUTE EOSINOPHIL [2]: 21 CELLS/uL
- ABSOLUTE LYMPHOCYTE [2]: 14288.5 CELLS/uL
- ABSOLUTE MONOCYTE [2]: 205.33 CELLS/uL
- ABSOLUTE SEGMENTED NEUTROPHIL [2]: 968.5 CELLS/uL
- BASOPHIL [2]: 0%
- EOSINOPHIL [2]: 0.17%
- ERYTHROCYTE COUNT [2]: 5.83 x10E6/uL
- HEMATOCRIT [2]: 36.53%
- HEMOGLOBIN [2]: 14.4 G/DL
- LEUKOCYTE COUNT [2]: 15.48 x10E3/uL
- LYMPHOCYTE [2]: 92%
- MEAN CORPUSCULAR HEMOGLOBIN [2]: 24.72 pg
- MEAN CORPUSCULAR HEMOGLOBIN CONCENTRATION [2]: 39.43 G/DL
- MEAN CORPUSCULAR VOLUME [2]: 62.68 fL
- MONOCYTE [2]: 1.33%
- NEUTROPHIL [2]: 6.5%
- NUCLEATED RED BLOOD CELLS [2]: 0.17 /100WBC
- PLATELET COUNT [2]: 1280.5 x10E3/uL
- ALANINE AMINOTRANSFERASE [2]: 50 u/L
- ALBUMIN [2]: 4.28 G/DL
- ALKALINE PHOSPHATASE [2]: 380.17 u/L
- ASPARTATE AMINOTRANSFERASE [2]: 82.67 u/L
- BLOOD UREA NITROGEN [2]: 15.33 mg/dL
- CARBON DIOXIDE [2]: 27.17 mmol/L
- CHLORIDE [2]: 100.33 MEQ/L
- CHOLESTEROL [2]: 60.67 mg/dL
- CREATINE PHOSPHOKINASE [2]: 441.5 u/L
- CREATININE [2]: 0.16 mg/dL
- GLUCOSE [2]: 146 mg/dL
- LACTATE DEHYDROGENASE [2]: 189.33 u/L
- LIPASE [2]: 9.17 u/L
- PHOSPHORUS [2]: 11.67 mg/dL
- POTASSIUM [2]: 6.86 MEQ/L
- SODIUM [2]: 142.33 MEQ/L
- TOTAL BILIRUBIN [2]: 0.2 mg/dL
- TOTAL PROTEIN [2]: 6.12 G/DL
- URIC ACID [2]: 1.82 mg/dL
- ABSOLUTE BASOPHIL [3]: 0 CELLS/uL
- ABSOLUTE EOSINOPHIL [3]: 0 CELLS/uL
- ABSOLUTE LYMPHOCYTE [3]: 14688.33 CELLS/uL
- ABSOLUTE MONOCYTE [3]: 111.67 CELLS/uL
- ABSOLUTE SEGMENTED NEUTROPHIL [3]: 1900 CELLS/uL
- BASOPHIL [3]: 0%
- EOSINOPHIL [3]: 0%
- ERYTHROCYTE COUNT [3]: 6.18 x10E6/uL
- HEMATOCRIT [3]: 38.13%
- HEMOGLOBIN [3]: 14.43 G/DL
- LEUKOCYTE COUNT [3]: 16.7 x10E3/uL
- LYMPHOCYTE [3]: 87.67%
- MEAN CORPUSCULAR HEMOGLOBIN [3]: 23.37 pg
- MEAN CORPUSCULAR HEMOGLOBIN CONCENTRATION [3]: 37.87 G/DL
- MEAN CORPUSCULAR VOLUME [3]: 61.8 fL
- MONOCYTE [3]: 0.67%
- NEUTROPHIL [3]: 11.67%
- NUCLEATED RED BLOOD CELLS [3]: 0.33 /100WBC
- PLATELET COUNT [3]: 1460 x10E3/uL
- ALANINE AMINOTRANSFERASE [3]: 62 u/L
- ALBUMIN [3]: 4.23 G/DL
- ALKALINE PHOSPHATASE [3]: 425.33 u/L
- ASPARTATE AMINOTRANSFERASE [3]: 90.33 u/L
- BLOOD UREA NITROGEN [3]: 16.67 mg/dL
- CARBON DIOXIDE [3]: 27.67 mmol/L
- CHLORIDE [3]: 100.33 MEQ/L
- CHOLESTEROL [3]: 70 mg/dL
- CREATINE PHOSPHOKINASE [3]: 270.33 u/L
- CREATININE [3]: 0.23 mg/dL
- GLUCOSE [3]: 150.67 mg/dL
- LACTATE DEHYDROGENASE [3]: 189.67 u/L
- LIPASE [3]: 9.33 u/L
- PHOSPHORUS [3]: 11.87 mg/dL
- POTASSIUM [3]: 7.16 MEQ/L
- SODIUM [3]: 144.07 MEQ/L
- TOTAL BILIRUBIN [3]: 0.27 mg/dL
- TOTAL PROTEIN [3]: 5.93 G/DL
- URIC ACID [3]: 1.67 mg/dL
